Source: patent publication US8716273B2, “N-(amino-heteroaryl)-1H-pyrrolopyridine-2-carboxamides derivatives preparation thereof and their use in therapy” (SANOFI, priority 2006, dated 2014)

Experiments:
[1] = target: T1, TRPV1 receptors (Mus musculus, UniProt Q704Y3); assay: Mouse cornea irritation test (capsaicin-induced eye rubbing); type: in vivo; conditions: compound 500 μM, 2 μl local application to the cornea 10 minutes before 2 μl of 160 μM capsaicin, rubbings counted for 2 minutes
T1 construct: from tissue; host or cells: cornea of the living mouse (C-fibre innervation)
T1 sequence (Q704Y3 whole entry): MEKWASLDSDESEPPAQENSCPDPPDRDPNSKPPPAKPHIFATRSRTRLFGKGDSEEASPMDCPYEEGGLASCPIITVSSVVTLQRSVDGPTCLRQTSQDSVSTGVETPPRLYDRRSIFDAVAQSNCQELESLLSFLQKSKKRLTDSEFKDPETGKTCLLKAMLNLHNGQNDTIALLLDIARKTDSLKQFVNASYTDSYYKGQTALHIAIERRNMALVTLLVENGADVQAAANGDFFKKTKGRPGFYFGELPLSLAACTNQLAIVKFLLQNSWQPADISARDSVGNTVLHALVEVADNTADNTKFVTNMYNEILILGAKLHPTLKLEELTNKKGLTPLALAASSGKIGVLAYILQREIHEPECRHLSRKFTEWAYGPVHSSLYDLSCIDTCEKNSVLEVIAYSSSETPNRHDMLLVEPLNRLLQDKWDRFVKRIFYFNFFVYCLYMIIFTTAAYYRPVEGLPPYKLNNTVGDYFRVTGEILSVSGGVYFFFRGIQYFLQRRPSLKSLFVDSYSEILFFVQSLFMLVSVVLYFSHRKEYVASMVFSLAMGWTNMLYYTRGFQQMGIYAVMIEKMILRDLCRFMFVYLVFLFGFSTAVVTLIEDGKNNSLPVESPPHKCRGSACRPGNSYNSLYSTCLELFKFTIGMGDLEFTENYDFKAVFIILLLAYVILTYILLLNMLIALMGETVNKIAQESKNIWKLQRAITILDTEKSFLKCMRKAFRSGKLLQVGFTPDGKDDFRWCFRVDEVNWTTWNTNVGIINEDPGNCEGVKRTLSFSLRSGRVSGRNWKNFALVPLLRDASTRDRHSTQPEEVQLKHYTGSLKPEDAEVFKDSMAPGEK
Experimental: Mouse Cornea Irritation Test
The irritant nature of capsaicin is easily appreciated at the level of the cornea since this organ is one of the most innervated with the C-fibres. In this context, according to preliminary experiments, the application of a very small amount of capsaicin (2 μl at a concentration of 160 μM) to the surface of the cornea of an animal leads to a certain number of stereotypical behaviors associated with irritation, which are easily listed. These include: blinking, rubbing of the instilled eye by the ipsilateral forepaw, rubbing of the face with both forepaws, scratching of the ipsilateral face by the hindpaw. […] Moreover, its appearance is also normal. […] It can be concluded that the duration of action of capsaicin at these doses is less than 2 minutes.
SUMMARY OF THE METHODOLOGY
The principle of the series of tests is to determine whether the compounds of the invention can influence the behavioral response induced by a specified amount of capsaicin. The capsaicin is initially diluted to 25 mM in DMSO and diluted, for final use, in physiological serum with Tween 80 at 10%. It appears, from control studies, that in these conditions the solvent has no effect.
In practice, the test product, prepared at 25 mM in DMSO and diluted for final use in physiological serum with 10% of Tween 80 at the strongest concentration of 500 μM, is administered by local application to the surface of the cornea at a volume of 2 μl, 10 minutes before application of the capsaicin. The animal receives an ocular instillation of 2 μl of a 160 μM capsaicin solution prepared as stated above. For an observation period of 2 minutes following instillation, the number of times the instilled eye is rubbed by the ipsilateral forepaw is counted for each animal.
For a given group, the percentage protection is calculated as follows: P=100−((average number of scratchings of the group treated with the compound/average number of scratchings of the group treated with the solvent)×100)
This percentage protection is averaged for each group of animals (n=number of animals tested with the compound of the invention).

[2] = target: T2, TRPV1 receptor (Rattus norvegicus, UniProt O35433); assay: Test of inhibition of the current induced by capsaicin on the rat DRG (whole-cell patch-clamp); type: cell-based; conditions: inhibition of the capsaicin control response, primary culture of neonate rat DRG neurons
T2 construct: The neurons of the DRG express the TRPV1 receptor naturally; endogenous in cells; host or cells: primary culture of neonatal rat dorsal root ganglion neurons
T2 sequence (O35433 whole entry): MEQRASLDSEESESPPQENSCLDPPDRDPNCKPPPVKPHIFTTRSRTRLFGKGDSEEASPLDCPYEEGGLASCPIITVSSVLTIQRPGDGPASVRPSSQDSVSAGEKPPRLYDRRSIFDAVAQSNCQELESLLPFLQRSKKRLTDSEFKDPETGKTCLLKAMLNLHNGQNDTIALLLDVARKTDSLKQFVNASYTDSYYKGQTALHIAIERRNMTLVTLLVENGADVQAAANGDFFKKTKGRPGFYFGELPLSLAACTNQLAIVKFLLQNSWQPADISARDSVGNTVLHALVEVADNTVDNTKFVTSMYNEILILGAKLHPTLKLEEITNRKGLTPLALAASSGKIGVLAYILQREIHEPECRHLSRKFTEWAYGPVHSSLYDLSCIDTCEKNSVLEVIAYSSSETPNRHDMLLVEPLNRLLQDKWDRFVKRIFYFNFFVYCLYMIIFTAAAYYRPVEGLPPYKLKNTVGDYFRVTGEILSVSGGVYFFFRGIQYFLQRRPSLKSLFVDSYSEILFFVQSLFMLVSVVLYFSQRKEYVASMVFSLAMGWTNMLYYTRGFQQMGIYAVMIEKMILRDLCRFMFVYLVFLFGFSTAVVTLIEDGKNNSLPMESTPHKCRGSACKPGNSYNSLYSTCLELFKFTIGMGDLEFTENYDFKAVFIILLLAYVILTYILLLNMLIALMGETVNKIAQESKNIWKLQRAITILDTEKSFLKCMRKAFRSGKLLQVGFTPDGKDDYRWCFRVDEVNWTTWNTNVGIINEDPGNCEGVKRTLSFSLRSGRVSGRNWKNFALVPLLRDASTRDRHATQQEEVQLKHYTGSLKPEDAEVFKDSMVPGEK
Experimental: Test of Inhibition of the Current Induced by Capsaicin on the Rat DRG
Primary Culture of Rat Dorsal Root Ganglion (DRG) Cells:
The neurons of the DRG express the TRPV1 receptor naturally.
Primary cultures of DRG of neonate rats are prepared from 1-day-old rats. Briefly, after dissection, the ganglia are trypsinized and the cells are dissociated mechanically by careful trituration. The cells are resuspended in Eagle's basic culture medium containing 10% of fetal calf serum, 25 mM KCl, 2 mM glutamine, 100 μg/ml gentamicin and 50 ng/ml of NGF, then deposited on glass slides covered with laminin (0.25×10^6 cells per slide), which are then placed in Corning 12-well plates. The cells are incubated at 37° C. in a humidified atmosphere containing 5% CO2 and 95% air. Cytosine β-D-arabinoside (1 μM) is added 48 h after culture set-up, to prevent the development of non-neuronal cells. The slides are transferred to the test chambers for patch-clamp investigations after 7-10 days in culture.
The measuring chambers (volume 800 μl) containing the cellular preparation are placed on the stage of an inverted microscope (Olympus IMT2) fitted with Hoffman optics (Modulation Contrast, New York) and are observed at magnification of 400×. The chambers are continually perfused by gravity (2.5 ml/min) by means of a solution distributor accepting 8 inlets and whose single outlet, comprising a polyethylene tube (inside diameter 500 μm) is positioned at less than 3 mm from the cell under investigation. […] The total currents (membrane potential fixed at −60 mV) were recorded with an Axopatch 1D amplifier (Axon Instruments, Foster City, Calif.), connected to a PC controlled by Pclamp8 software (Axon Instrument). The current traces are recorded on paper and simultaneously digitized (sampling frequency […]) and saved to the hard disk of the PC.
The application of a micromolar solution of capsaicin induces a cationic input current on the DRG cells (voltage fixed at −70 mV). […] The results are expressed as percentage inhibition of the capsaicin control response.

| SMILES | % P 500 μM (percentage protection) [1] [%] | further results |
| --- | --- | --- |
| CNc1ccc(NC(=O)c2cc3cc(C(F)(F)F)cnc3n2Cc2cccc(F)c2)cn1 [Compound 1, N-[(6-Methylamino)pyridin-3-yl]-5-trifluoromethyl-1-(3-fluorobenzyl)-1H-pyrrolo[2,3-b]pyridine-2-carboxamide] | 51 |  |
| Cc1cc(N(C)C)ncc1NC(=O)c1cc2cc(C(F)(F)F)cnc2n1Cc1cccc(F)c1.Cl [Compound 3, N-(6-N,N-Dimethylamino-4-methyl-pyridin-3-yl)-5-trifluoromethyl-1-(3-fluorobenzyl)-1H-pyrrolo[2,3-b]pyridine-2-carboxamide hydrochloride (1:1)] | 34 |  |
| CN(C)c1ncc(NC(=O)c2cc3cc(C(F)(F)F)cnc3n2Cc2cccc(F)c2)cc1C(F)(F)F.Cl [Compound 4, N-(6-N,N-Dimethylamino-5-trifluoromethyl-pyridin-3-yl)-5-trifluoromethyl-1-(3-fluorobenzyl)-1H-pyrrolo[2,3-b]pyridine-2-carboxamide hydrochloride (1:1)] |  | Percentage inhibition in patch DRG ([2]; compound at 1 nM): 98% (1 nM) |
| O=C(Nc1ccc(N2CCCC2)nc1)c1cc2cc(C(F)(F)F)cnc2n1Cc1cccc(F)c1 [Compound 6, N-[6-(Pyrrolidin-1-yl)pyridin-3-yl]-5-trifluoromethyl-1-(3-fluorobenzyl)-1H-pyrrolo[2,3-b]pyridine-2-carboxamide] | 30 | inhibition at 0.001 µM ([2]; DRG neuron, compound at 1 nM, read-out: Percentage inhibition in patch DRG): 71% |
| O=C(Nc1ccc(N2CCCC2)nc1)c1cc2cc(C(F)(F)F)cnc2n1Cc1ccncc1 [Compound 9, N-[6-(Pyrrolidin-1-yl)pyridin-3-yl]-5-trifluoromethyl-1-[(4-pyridyl)methyl]-1H-pyrrolo[2,3-b]pyridine-2-carboxamide] | 43 |  |
| O=C(Nc1ccc(N2CCC(F)(F)C2)nc1)c1cc2cc(C(F)(F)F)cnc2n1Cc1cccc(F)c1 [Compound 12, N-[6-(3,3-difluoropyrrolidin-1-yl)pyridin-3-yl]-5-trifluoromethyl-1-(3-fluorobenzyl)-1H-pyrrolo[2,3-b]pyridine-2-carboxamide] | 83 |  |
| O=C(Nc1ccc(N2CCC2)nc1)c1cc2cc(C(F)(F)F)cnc2n1Cc1cccc(F)c1 [Compound 15, N-[6-(Azetidin-1-yl)pyridin-3-yl]-5-trifluoromethyl-1-(3-fluorobenzyl)-1H-pyrrolo[2,3-b]pyridine-2-carboxamide] |  | inhibition at 0.01 µM ([2]; DRG neuron, compound at 10 nM, read-out: Percentage inhibition in patch DRG): 100% |
